Measured values published in paper PMC10462762, “Chemoenzymatic synthesis of genetically-encoded multivalent liquid N-glycan arrays” (Nature Communications, 2023).

Molecular target: T1, α-(2→6)-sialyltransferase from Photobacterium damselae (Pd26ST) (Photobacterium damselae, UniProt O66375)
T1 construct: gene bst; recombinant, expressed and purified as in supplementary information
T1 sequence (O66375 16-675): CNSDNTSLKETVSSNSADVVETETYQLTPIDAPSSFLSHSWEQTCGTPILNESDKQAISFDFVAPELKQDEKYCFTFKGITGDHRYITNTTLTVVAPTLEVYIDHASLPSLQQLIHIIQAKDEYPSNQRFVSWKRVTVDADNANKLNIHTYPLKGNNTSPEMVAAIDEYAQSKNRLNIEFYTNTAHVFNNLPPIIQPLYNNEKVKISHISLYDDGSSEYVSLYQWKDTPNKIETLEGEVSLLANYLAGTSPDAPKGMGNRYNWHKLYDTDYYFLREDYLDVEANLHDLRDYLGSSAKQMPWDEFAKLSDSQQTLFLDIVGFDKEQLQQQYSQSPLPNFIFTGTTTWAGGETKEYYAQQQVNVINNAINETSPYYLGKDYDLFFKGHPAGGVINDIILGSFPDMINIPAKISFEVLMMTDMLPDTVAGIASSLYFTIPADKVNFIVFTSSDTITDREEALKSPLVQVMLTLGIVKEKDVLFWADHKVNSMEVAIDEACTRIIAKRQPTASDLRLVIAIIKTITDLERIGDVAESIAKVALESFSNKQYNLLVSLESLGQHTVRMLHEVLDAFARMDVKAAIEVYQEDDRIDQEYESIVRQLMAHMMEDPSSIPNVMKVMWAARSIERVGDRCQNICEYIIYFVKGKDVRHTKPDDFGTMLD
Assay: sialylation of phage-displayed LacNAc / Lac, MALDI-TOF MS
Assay type: biochemical
Conditions: donor substrate; acceptor LacNAc- and lactose-phage; 9 h

`CC(=O)N[C@H]1[C@H]([C@H](O)[C@H](O)CO)O[C@](OP(=O)(O)OC[C@H]2O[C@@H](n3ccc(N)nc3=O)[C@H](O)[C@@H]2O)(C(=O)O)C[C@@H]1O` [CMP-Neu5Ac] was tested, and the “sialylation of phage-displayed LacNAc / Lac, MALDI-TOF MS” value was “(Pd26ST) and cytidine-5’-monophosphate-N-acetylneuraminic acid (CMP-Neu5Ac)”.
